Assay results taken from patent US12728116B2, “Methods of treating multiple sclerosis” (Vanda Pharmaceuticals Inc., priority 2021, dated 2026).
“And” between values parts separate entries of the source, which are not always exact repeats. Equal values may be shown once.

Columns and labels:
[1] = system: adult subjects with relapsing MS; experiment: FSIQ-RMS weekly symptoms score, change from baseline to Week 108 (fatigue); assay type: in vivo, human; conditions: for FSIQ-RMS change: Improved (<−6.3), patients / FSIQ-RMS change: Stable (−6.3 < x < +6.3), patients / FSIQ-RMS change: Stable or Improved, patients / FSIQ-RMS change: Worsened (≥6.3), patients / FSIQ-RMS-S total score change: Improved (<−6.3), patients / FSIQ-RMS-S total score change: Stable (−6.3 < x < +6.3), patients / FSIQ-RMS-S total score change: Stable or Improved, patients / FSIQ-RMS-S total score change: Worsened (≥6.3), patients: Week 108; for Mean change from baseline to Week 108 in FSIQ-RMS weekly symptoms score (MMRM): ponesimod 20 mg, teriflunomide 14 mg, full analysis set, increase = worsening
Protocol: In some embodiments, the patient-reported outcome questionnaire is the symptom domain of the FSIQ-RMS. The FSIQ-RMS symptom domain (FSIQ-RMS-S) consists of seven items assessing fatigue-related symptoms with a recall period of 24 hours measured on an 11-point numeric rating scale; the standardized symptom domain score ranges from 0 to 100 with a higher score indicating greater fatigue. This domain (i.e., section 1 of the questionnaire) is completed on 7 consecutive days.
As used herein, the term “patient level” refers to individual or within patient level of change. As used herein, “clinically meaningful” refers to the practical importance of a treatment effect and whether it has a real genuine, palpable, noticeable effect on symptoms and/or daily life. When interpreting data from a Patient Reported Outcome (PRO), for example, it is helpful to define a level of change on the PRO score over a predetermined time period that should be interpreted as a treatment benefit. Various terms are used for this level of change, including meaningful change threshold (MCT). This threshold can be used to conduct a responder analysis where an individual patient is a responder if the level of change on the PRO score for that patient exceeds the MCT. The proportion of responders between treatment groups can be compared to evaluate treatment effect. For example, in certain embodiments disclosed herein, there is an analysis of the percentage of responders in the ponesimod and teriflunomide treatment groups using an MCT of −6.3 on the FSIQ-RMS weekly symptom score. The percentage of subjects in the stable or improved category is also calculated. […] Accordingly, evaluation of within patient changes using MCT and associated responder analyses are used to provide additional interpretation to a p-value derived from a statistical test
For the MS symptoms domain, the FSIQ-RMS asks about a patient's fatigue-related symptoms of relapsing MS over the past 24 hours while doing routine daily activities (e.g., housework, yard work, shopping, working, etc.) for Items 1-6 or while at rest (e.g., reading a book, watching TV, etc.) for Item 7. Patients are asked to select a response on a scale of 0 to 10 that best describes their experience and are asked to not skip any questions, with no answers being right or wrong. • Item 1—In the past 24 hours, while doing routine daily activities, how physically tired did you feel? See FIG. 31. • Item 2—In the past 24 hours, while doing routine daily activities, how mentally tired did you feel? See FIG. 32. • Item 3—In the past 24 hours, while doing routine daily activities, how physical weak did you feel? See FIG. 33. • Item 4—In the past 24 hours, how would you rate your energy while doing routine daily activities? See FIG. 34. • Item 5—In the past 24 hours, while doing routine daily activities, how worn out did you feel? See FIG. 35. • Item 6—In the past 24 hours, while doing routine daily activities, how sleepy did you feel? See FIG. 36. • Item 7—In the past 24 hours, how worn out did you feel while at rest? MS-Related Impacts—13 Items
Secondary efficacy variables and testing strategy: Four secondary efficacy endpoints were analyzed as per the statistical testing strategy outlined in FIG. 1. • Change from baseline to Week 108 in fatigue-related symptoms as measured by the symptoms domain of the FSIQ-RMS patient-reported outcome [Fatigue] • Cumulative number of combined unique active lesions from baseline to Week 108 on brain MRI [CUALs] • Time to first 12-week confirmed disability accumulation (CDA) from baseline to EOS on Expanded Disability Status Scale (EDSS) [12-week CDA] • Time to first 24-week CDA from baseline to EOS on EDSS [24-week CDA] […]

[2] = system: adult subjects with relapsing MS; experiment: Combined unique active lesions (CUAL) on brain MRI from baseline to Week 108; assay type: in vivo, human; conditions: for CUAL mean estimate (Lesions per year), negative binomial regression: ponesimod 20 mg, teriflunomide 14 mg; for Total number of lesions (CUAL): total time 1072 / 1067 years; for Raw mean lesions/year (CUAL): baseline to week 108
Protocol: Secondary efficacy variables and testing strategy: Four secondary efficacy endpoints were analyzed as per the statistical testing strategy outlined in FIG. 1. • Change from baseline to Week 108 in fatigue-related symptoms as measured by the symptoms domain of the FSIQ-RMS patient-reported outcome [Fatigue] • Cumulative number of combined unique active lesions from baseline to Week 108 on brain MRI [CUALs] • Time to first 12-week confirmed disability accumulation (CDA) from baseline to EOS on Expanded Disability Status Scale (EDSS) [12-week CDA] • Time to first 24-week CDA from baseline to EOS on EDSS [24-week CDA]
CUAL are new Gd+T1 lesions plus new or enlarging T2 lesions (without double-counting of lesions).
MRI scans were performed at Visits 2 (Baseline). 10 (Week 60), and 14 (EOT) and at any unscheduled visit (U1, U2, etc.). If applicable, MRI scans also were performed at the corresponding visits in the PTOP (Visits 10A and 14A). Testing at all visits were performed up to 7 days prior to or after the visit date.
T1-weighted imaging before and after i.v. administration of 0.1 mmol/kg body weight (=0.2 mL/kg) of Gd as well as PD-T2-weighted imaging was performed. Gd may cause nausea and vomiting and in very rare cases allergic reactions that could require immediate anti-anaphylactic therapy (such as steroids, epinephrine/adrenaline, etc.).
ARR differences and mean number of CUALs were examined using a negative binomial regression model with adjusting for the log time in the study (in years) as an offset.

[3] = Baseline EDSS <3.5 (title: ≤3.5)
[4] = baseline fatigue below the median
[5] = no prior DMT treatment within about two years
[6] = no prior DMT treatment within about two years, listed as ponesimod
[7] = baseline to Week 108, Full Analysis Set

Row | Compound | FSIQ-RMS change: Improved (<−6.3), patients [1, 3] [%] | FSIQ-RMS change: Stable (−6.3 < x < +6.3), patients [1, 3] [%] | FSIQ-RMS change: Stable or Improved, patients [1, 3] [%] | FSIQ-RMS change: Worsened (≥6.3), patients [1, 3] [%] | FSIQ-RMS-S total score change: Improved (<−6.3), patients ([1]; Full Analysis Set) [%] | FSIQ-RMS-S total score change: Stable (−6.3 < x < +6.3), patients ([1]; Full Analysis Set) [%] | FSIQ-RMS-S total score change: Stable or Improved, patients ([1]; Full Analysis Set) [%] | FSIQ-RMS-S total score change: Worsened (≥6.3), patients ([1]; Full Analysis Set) [%] | FSIQ-RMS change: Improved (<−6.3), patients [1, 4] [%] | FSIQ-RMS change: Stable (−6.3 < x < +6.3), patients [1, 4] [%] | FSIQ-RMS change: Stable or Improved, patients [1, 4] [%] | FSIQ-RMS change: Worsened (≥6.3), patients [1, 4] [%] | FSIQ-RMS change: Improved (<−6.3), patients ([1]; no Gd+ T1 lesions at baseline) [%] | FSIQ-RMS change: Stable (−6.3 < x < +6.3), patients ([1]; no Gd+ T1 lesions at baseline) [%] | FSIQ-RMS change: Stable or Improved, patients ([1]; no Gd+ T1 lesions at baseline) [%] | FSIQ-RMS change: Worsened (≥6.3), patients ([1]; no Gd+ T1 lesions at baseline) [%] | FSIQ-RMS change: Improved (<−6.3), patients [1, 5] [%] | FSIQ-RMS change: Stable (−6.3 < x < +6.3), patients [1, 5] [%] | FSIQ-RMS change: Stable or Improved, patients [1, 5] [%] | FSIQ-RMS change: Worsened (≥6.3), patients [1, 5] [%] | also measured
1 | CCC/N=C1\S/C(=C\c2ccc(OC[C@H](O)CO)c(Cl)c2)C(=O)N1c1ccccc1C [Ponesimod, (R)-5-[3-chloro-4-(2,3-dihydroxy-propoxy)-benz[Z]ylidene]-2-([Z]-propylimino)-3-o-tolyl-thiazolidin-4-one] | 30.6 | 40.8 | 71.4 | 28.6 | 30.5 | 38.4 | 68.9 | 31.1 | 19.1 | 45.2 | 64.4 | 35.6 | 30.0 | 37.4 | 67.5 | 32.5 | 31.4 | 44.0 | 75.4 | 24.6 | MS-fatigue (FSIQ-RMS) mean difference, change from baseline to week 108, ponesimod vs teriflunomide ([1]; EDSS≤3 subgroup): −4.31; FSIQ-RMS change: Stable or Improved, patients ([1]; baseline fatigue below the median, listed as ponesimod): ~65%; FSIQ-RMS change: Stable or Improved, patients ([1]; no Gd+ T1 lesions at baseline, listed as ponesimod): about 68%; FSIQ-RMS change: Improved (<−6.3), patients [1, 6]: 31.4%; FSIQ-RMS change: Stable or Improved, patients [1, 6]: about 75%; Mean difference in FSIQ-RMS change from baseline to Week 108, ponesimod vs teriflunomide ([1]; ponesimod 20 mg vs teriflunomide 14 mg, Full Analysis Set): −3.57; Mean change from baseline to Week 108 in FSIQ-RMS weekly symptoms score (MMRM) [1]: −0.01; CUAL treatment effect (Rate Ratio), ponesimod vs. teriflunomide [2, 7]: 0.44 and 0.444; CUAL mean estimate (Lesions per year), negative binomial regression [2, 7]: 1.405 Lesions per year; Total number of lesions (CUAL) ([2]; baseline to Week 108): 1671; Raw mean lesions/year (CUAL) [2]: 1.559 lesions/year; CUALs, benefit compared with teriflunomide in subgroups ([2]; patients with EDSS≤3 and treatment-naïve patients): benefited from ponesimod compared with teriflunomide; Reduction of number of CUALs between baseline and week 108 compared to teriflunomide ([2]; ponesimod 20 mg vs teriflunomide 14 mg): 56%
2 | C/C(O)=C(\C#N)C(=O)Nc1ccc(C(F)(F)F)cc1 [Teriflunomide, reference compound] | 27.9 | 34.2 | 62.1 | 37.9 | 29.9 | 32.6 | 62.5 | 37.5 | 20.9 | 33.7 | 54.6 | 45.4 | 25.8 | 31.2 | 57.0 | 43.0 | 26.2 | 36.9 | 63.1 | 36.9 | FSIQ-RMS change: Stable or Improved, patients ([1]; baseline fatigue below the median, listed as teriflunomide): about 55%; FSIQ-RMS change: Stable or Improved, patients ([1]; no Gd+ T1 lesions at baseline, listed as teriflunomide): about 57%; Mean change from baseline to Week 108 in FSIQ-RMS weekly symptoms score (MMRM) [1]: 3.56; CUAL mean estimate (Lesions per year), negative binomial regression [2, 7]: 3.164 Lesions per year; Total number of lesions (CUAL) ([2]; baseline to Week 108): 3714; Raw mean lesions/year (CUAL) [2]: 3.481 lesions/year
